Results as given in ChEMBL document CHEMBL5647692, “The novel dual PI3K/mTOR inhibitor NVP-BGT226 displays cytotoxic activity in both normoxic and hypoxic hepatocarcinoma cells” (Oncotarget, 2015).
The source made the active and inactive calls. The rule behind the calls is not given here.

Legend:
[1] = Inhibition of PI3K/Akt/mTOR signaling pathway in human SNU-475 cells assessed as reduction in phosphorylation of Akt at 0.001 to 0.01 uM incubated for 1 hr under hypoxia condition by Western blotting analysis; format: cell-based; conditions: dose 0.001-0.01 µM
Mahlavu [2] = experiment: Cytotoxicity against human Mahlavu cells assessed as reduction in cell viability at 0.5 uM incubated for 24 hrs in presence of 3-Methyladenine under hypoxia condition by MTT assay; format: functional, cell-based
Hep 3B2 [3] = experiment: Cytotoxicity against human Hep3B cells assessed as reduction in cell viability at 0.5 uM incubated for 24 hrs in presence of 3-Methyladenine under hypoxia condition by MTT assay; format: functional, cell-based
Mahlavu [4] = experiment: Cytotoxicity against human Mahlavu cells assessed as reduction in cell viability incubated for 24 hrs under normoxia condition by MTT assay; format: functional, cell-based
[5] = Inhibition of PI3K/Akt/mTOR signaling pathway in human SNU-475 cells assessed as reduction in S6 phosphorylation at 1 to 10 nM incubated for 1 hr under hypoxia condition by Western blotting analysis; format: cell-based; conditions: dose 1-10 nM
[6] = Inhibition of PI3K/Akt/mTOR signaling pathway in human Mahlavu cells assessed as reduction in phosphorylation of Akt incubated for 1 hr under normoxia condition by Western blotting analysis; format: cell-based; conditions: dose 0.25-1 µM
[7] = Inhibition of PI3K/Akt/mTOR signaling pathway in human Mahlavu cells assessed as reduction in phosphorylation of Akt at 0.001 to 0.01 uM incubated for 1 hr under hypoxia condition by Western blotting analysis; format: cell-based; conditions: dose 0.001-0.01 µM
Hep 3B2 [8] = experiment: Induction of cell cycle arrest in human Hep3B cells assessed as decrease in accumulation of cells in G2/M phase incubated at 0.01 to 0.1 uM for 24 hrs by propidium iodide staining based muse cell analysis; format: functional; conditions: dose 0.01-0.1 µM
Mahlavu [9] = experiment: Induction of apoptosis in human Mahlavu cells assessed as cleaved Caspase 9 level at 0.5 uM incubated for 24 hrs by Western blotting analysis; format: functional, cell-based
SNU-449 [10] = experiment: Induction of apoptosis in human SNU-449 cells assessed as viable cells at 1.5 uM incubated for 24 hrs by Annexin-V/7-AAD staining based muse cell analyzer method (reference value: 90.07 %); format: functional; conditions: read-out: Activity
SNU-449 [11] = experiment: Induction of apoptosis in human SNU-449 cells assessed as early apoptotic cells at IC50 concentration incubated for 24 hrs in presence of Z-VAD-fmk by Annexin-V/7-AAD staining based muse cell analyzer method (reference value: 3.95 %); format: functional
Mahlavu [12] = experiment: Induction of autophagy in human Mahlavu cells assessed as increase in lipidation of LC3I to LC3II at 0.5 uM incubated for 24 hrs by Western blot analysis; format: functional, cell-based
SNU-475 [13] = experiment: Induction of autophagy in human SNU-475 cells assessed as increase in lipidation of LC3I to LC3II at 0.5 uM incubated for 24 hrs by Western blot analysis; format: functional, cell-based
SNU-475 [14] = experiment: Cytotoxicity against human SNU-475 cells assessed as reduction in cell viability incubated for 48 hrs by MTT assay; format: functional, cell-based; conditions: SNU-475, 48 h
SNU-475 [15] = experiment: Cytotoxicity against human SNU-475 cells assessed as reduction in cell viability at 0.5 uM incubated for 24 hrs in presence of 3-Methyladenine by MTT assay; format: functional, cell-based
[16] = Inhibition of PI3K/Akt/mTOR signaling pathway in human Hep3B cells assessed as reduction in phosphorylation of mTORC1 substrate S6 incubated for 1 hr under normoxia condition by Western blotting analysis; format: cell-based; conditions: dose 0.25-1 µM
SNU-449 [17] = experiment: Induction of apoptosis in human SNU-449 cells assessed as necrotic cells at 1.5 uM incubated for 24 hrs by Annexin-V/7-AAD staining based muse cell analyzer method (reference value: 0.95 %); format: functional
Mahlavu [18] = experiment: Induction of autophagy in human Mahlavu cells assessed as increase in lipidation of LC3A/B II level at 0.5 uM incubated for 24 hrs in presence of chloroquine by Western blot analysis; format: functional, cell-based
Mahlavu [19] = experiment: Induction of autophagy in human Mahlavu cells assessed as upregulation of LC3A/B II level by Western blot analysis; format: functional, cell-based; conditions: dose 0.1-0.5 µM
[20] = molecular target: Hypoxia-inducible factor 1-alpha (Homo sapiens) (UniProt Q16665); experiment: Inhibition of HIF-1alpha in human Hep3B cells incubated for 6 hrs under hypoxia condition by Western blot analysis; format: cell-based; conditions: dose 0.01-0.1 µM
Chain of Hypoxia-inducible factor 1-alpha (Homo sapiens) (Q16665 whole entry, looked up): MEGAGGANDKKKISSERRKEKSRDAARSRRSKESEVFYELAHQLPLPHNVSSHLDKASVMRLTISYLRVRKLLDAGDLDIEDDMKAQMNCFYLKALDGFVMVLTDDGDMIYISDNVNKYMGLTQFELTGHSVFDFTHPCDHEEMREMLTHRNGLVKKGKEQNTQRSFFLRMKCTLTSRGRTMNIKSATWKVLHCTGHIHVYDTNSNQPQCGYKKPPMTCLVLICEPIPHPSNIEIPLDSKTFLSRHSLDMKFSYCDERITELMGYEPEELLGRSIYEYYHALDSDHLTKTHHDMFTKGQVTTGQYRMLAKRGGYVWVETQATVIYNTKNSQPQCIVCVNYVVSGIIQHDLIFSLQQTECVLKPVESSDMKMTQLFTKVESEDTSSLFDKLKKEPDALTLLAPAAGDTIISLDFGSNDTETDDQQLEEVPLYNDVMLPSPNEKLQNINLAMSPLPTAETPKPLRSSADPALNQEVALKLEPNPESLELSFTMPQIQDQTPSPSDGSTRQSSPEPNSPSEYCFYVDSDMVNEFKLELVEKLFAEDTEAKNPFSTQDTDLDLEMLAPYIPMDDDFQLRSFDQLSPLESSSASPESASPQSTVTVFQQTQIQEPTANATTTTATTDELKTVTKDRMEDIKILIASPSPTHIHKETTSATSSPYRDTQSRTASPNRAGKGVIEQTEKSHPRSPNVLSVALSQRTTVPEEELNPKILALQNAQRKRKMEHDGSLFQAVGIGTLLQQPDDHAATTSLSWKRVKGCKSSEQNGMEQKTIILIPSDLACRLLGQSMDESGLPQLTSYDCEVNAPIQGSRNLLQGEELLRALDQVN

Mahlavu [21] = experiment: Induction of cell cycle arrest in human Mahlavu cells assessed as increase in accumulation of cells in G0/G1 phase incubated at 0.01 to 0.1 uM for 24 hrs by propidium iodide staining based muse cell analysis; format: functional; conditions: dose 0.01-0.1 µM
[22] = Inhibition of PI3K/Akt/mTOR signaling pathway in human HepG2 cells assessed as reduction in phosphorylation of mTORC1 substrate S6 incubated for 1 hr under normoxia condition by Western blotting analysis; format: cell-based; conditions: dose 0.25-1 µM
Mahlavu [23] = experiment: Induction of autophagy in human Mahlavu cells assessed as reduction in SQSTM1/p62 level by Western blot analysis; format: functional, cell-based; conditions: dose 0.1-0.5 µM
SNU-449 [24] = experiment: Induction of apoptosis in human SNU-449 cells assessed as early apoptotic cells at 1.5 uM incubated for 24 hrs by Annexin-V/7-AAD staining based muse cell analyzer method (reference value: 3.95 %); format: functional
Hep 3B2 [25] = experiment: Induction of cell cycle arrest in human Hep3B cells assessed as increase in accumulation of cells in G0/G1 phase incubated at 0.01 to 0.1 uM for 24 hrs by propidium iodide staining based muse cell analysis; format: functional; conditions: dose 0.01-0.1 µM
Mahlavu [26] = experiment: Induction of cell cycle arrest in human Mahlavu cells assessed as decrease in accumulation of cells in G2/M phase incubated at 0.01 to 0.1 uM for 24 hrs by propidium iodide staining based muse cell analysis; format: functional; conditions: dose 0.01-0.1 µM
Mahlavu [27] = experiment: Induction of autophagy in human Mahlavu cells assessed as decreased expression of SQSTM1/p62 level incubated for 24 hrs under hypoxia condition by Western blot analysis; format: functional, cell-based; conditions: dose 0.1-0.5 µM
Mahlavu [28] = experiment: Cytotoxicity against human Mahlavu cells assessed as reduction in cell viability at 0.5 to 5 uM incubated for 24 hrs by MTT assay; format: functional, cell-based; conditions: dose 0.5-5 µM
Hep 3B2 [29] = experiment: Induction of apoptosis in human Hep3B cells assessed as cleaved Caspase 7 level at 0.5 uM incubated for 24 hrs by Western blotting analysis; format: functional, cell-based
[30] = Inhibition of PI3K/Akt/mTOR signaling pathway in human Mahlavu cells assessed as reduction in phosphorylation of Akt at 1 to 10 nM incubated for 1 hr under hypoxia condition by Western blotting analysis; format: cell-based; conditions: dose 1-10 nM
[31] = Inhibition of PI3K/Akt/mTOR signaling pathway in human HepG2 cells assessed as reduction in phosphorylation of Akt incubated for 1 hr under normoxia condition by Western blotting analysis; format: cell-based; conditions: dose 0.25-1 µM
[32] = Inhibition of PI3K/Akt/mTOR signaling pathway in human SNU-449 cells assessed as reduction in phosphorylation of Akt incubated for 1 hr under normoxia condition by Western blotting analysis; format: cell-based; conditions: dose 0.25-1 µM
SNU-475 [33] = experiment: Cytotoxicity against human SNU-475 cells assessed as reduction in cell viability at 0.5 uM incubated for 24 hrs in presence of chloroquine under hypoxia condition by MTT assay; format: functional, cell-based
SNU-449 [34] = experiment: Cytotoxicity against human SNU-449 cells assessed as reduction in cell viability incubated for 48 hrs by MTT assay; format: functional, cell-based; conditions: SNU-449, 48 h

COc1ccc(-c2ccc3ncc4c(c3c2)n(-c2ccc(N3CCNCC3)c(C(F)(F)F)c2)c(=O)n4C)cn1 [BGT-226 FREE BASE]
inhibition [1]: Active | Activity (Mahlavu [2]): Active | Activity (Hep 3B2 [3]): Active | Activity (Mahlavu [4]): Active | inhibition [5]: Active | inhibition [6]: Dose-Dependent Effect | inhibition [7]: Active | Activity (Hep 3B2 [8]): Active | Activity (Mahlavu [9]): Active | viability at 1.5 µM (SNU-449 [10]): 48.6% | Activity (SNU-449 [11]): 11.94% | Activity (Mahlavu [12]): Active | Activity (SNU-475 [13]): Active | IC50 (SNU-475 [14]): 1010 nM | Activity (SNU-475 [15]): Active | inhibition [16]: Dose-Dependent Effect | Activity (SNU-449 [17]): 1.02% | Activity (Mahlavu [18]): Active | Activity (Mahlavu [19]): Dose-Dependent Effect | inhibition [20]: Dose-Dependent Effect | Activity (Mahlavu [21]): Active | inhibition [22]: Dose-Dependent Effect | Activity (Mahlavu [23]): Dose-Dependent Effect | Activity (SNU-449 [24]): 18.2% | Activity (Hep 3B2 [25]): Active | Activity (Mahlavu [26]): Active | Activity (Mahlavu [27]): Dose-Dependent Effect | Activity (Mahlavu [28]): Active | Activity (Hep 3B2 [29]): Active | inhibition [30]: Active | inhibition [31]: Dose-Dependent Effect | inhibition [32]: Dose-Dependent Effect | Activity (SNU-475 [33]): Active | IC50 (SNU-449 [34]): 510 nM
